Laboratory results: US8609681B2, “Spirocyclic nitriles as protease inhibitors” (Sanofi, priority 2006, dated 2013)

Tests used:
Format in all cases: biochemical
Conditions in all cases: Ki from IC50 by Cheng-Prusoff equation
[1] = target: catalytic domain of human Cathepsin B (Homo sapiens (Human), UniProt P07858); assay: Enzymatic activity of the catalytic domain of human Cathepsin B (fluorogenic substrate Z-Arg-Arg-AMC)
Method: (§1) The enzyme is activated as follows:
25 μg of enzyme are diluted with acetate buffer to a concentration of 12.5 μg/ml. 1 part by volume of enzyme is admixed with 20 parts by volume of cysteine solution and diluted with the acetate/Hepes buffer to a concentration of 0.11 μg/ml and incubated at 37° C. for 5 minutes.
(§2) To measure the enzyme activity, 10 μl of enzyme solution are incubated with 10 μl of a 3% (v/v) aqueous dimethyl sulfoxide solution (reaction 1) for 10 minutes. To measure the enzyme inhibitor activity, 10 μl of enzyme solution are incubated with 10 μl of a 3% (v/v) aqueous dimethyl sulfoxide solution which contains the enzyme inhibitor (reaction 2).
(§3) Both in reaction 1 and in reaction 2, after addition of 10 μl of a 3% (v/v) aqueous dimethyl sulfoxide solution which contains 0.3 mmol/l of the substrate, the enzyme reaction is monitored by fluorescence spectroscopy (360 nm (excitation)/465 nm (emission)).
(§4) The enzyme activity is shown as fluorescence increase/minute.
The inhibitor action is calculated as the percentage inhibition by the following formula: inhibition=100−[(fluorescence increase/minute in reaction 2)/(fluorescence increase/minute in reaction 1)×100].
(§5) The IC50, which is the inhibitor concentration required for a 50% inhibition in the enzyme activity, is determined graphically by plotting the percentage inhibitions at different inhibitor concentrations.
The acetate buffer contains 0.1 mol/l of sodium acetate, 0.1 mol/l of sodium chloride and 0.001% Pluronic (Sigma, Deisenhofen, Germany) pH 4.5.
(§6) The cysteine solution contains 0.3 mol/l of cysteine in water. The acetate/Hepes buffer contains 0.15 mol/l of sodium acetate, 0.15 mol/l of Hepes, 0.3 mol/l of sodium chloride and 0.001% Pluronic (Sigma, Deisenhofen, Germany) pH 6.5.
The enzyme solution contains 0.11 μg/ml of the enzyme domain.
The substrate solution contains 0.3 mmol/l of the fluorogenic substrate […] (Bachem, Heidelberg, Germany).
(§7) Corresponding Ki values are obtained by applying the Cheng-Prusoff equation: Ki=Ki,app/(1+[S]/KM); where Ki,app=IC50
(§8) (Ki,app is the concentration of the competing substance which leads to 50% inhibition of the enzymatic activity at a substrate concentration [S])

[2] = target: catalytic domain of human Cathepsin S (Homo sapiens (Human), UniProt P25774); assay: Enzymatic activity of the catalytic domain of human Cathepsin S (fluorogenic substrate Z-Val-Val-Arg-AMC)
catalytic domain of human Cathepsin S, sequence (P25774 115-331): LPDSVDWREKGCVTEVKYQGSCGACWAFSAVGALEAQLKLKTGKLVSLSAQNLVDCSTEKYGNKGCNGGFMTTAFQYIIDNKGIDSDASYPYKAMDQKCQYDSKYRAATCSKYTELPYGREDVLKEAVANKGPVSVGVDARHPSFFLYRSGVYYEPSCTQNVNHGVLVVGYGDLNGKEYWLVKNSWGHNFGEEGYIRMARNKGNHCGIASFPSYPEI
Method: as §1
5 parts by volume of enzyme are incubated with 20 parts by volume of acetate buffer and 50 parts by volume of cysteine solution at 37° C. for 5 minutes. After the activation of the enzyme, it is diluted with the Tris/HCl buffer to a concentration of 0.65 μg/ml. To measure the enzyme activity, 10 μl of enzyme solution are incubated with 10 μl of a 3% (v/v) aqueous dimethyl sulfoxide solution (reaction 1) for 10 minutes. To measure the enzyme inhibitor activity, 10 μl of enzyme solution are incubated with 10 μl of a 3% (v/v) aqueous dimethyl sulfoxide solution which contains the enzyme inhibitor (reaction 2). Both in reaction 1 and in reaction 2, after addition of 10 μl of a 1.5% (v/v) aqueous dimethyl sulfoxide solution which contains 0.15 mmol/l of the substrate, the enzyme reaction is monitored by fluorescence spectroscopy (360 nm (excitation)/465 nm (emission)).
as §4
(§9) The inhibitor action is calculated as the percentage inhibition by the following formula: % inhibition=100−[(fluorescence increase/minute in reaction 2)/(fluorescence increase/minute in reaction 1)×100].
as §5
The acetate buffer contains 0.05 mol/l of sodium acetate, 0.1 mol/l of sodium chloride and 0.001% Pluronic (Sigma, Deisenhofen, Germany) pH 5.5.
The cysteine solution contains 0.3 mol/l of cysteine in water. The Tris/HCl buffer contains 0.1 mol/l of Tris/HCl, 0.04 mol/l of EDTA and 0.001% Pluronic pH=7.5. The enzyme solution contains 0.65 μg/ml of the enzyme domain.
The substrate solution contains 0.15 mmol/l of the fluorogenic substrate Z-Val-Val-Arg-AMC (Bachem, Heidelberg, Germany).
as §7, §8

[3] = target: catalytic domain of human Cathepsin K (Homo sapiens (Human), UniProt P43235); assay: Enzymatic activity of the catalytic domain of human Cathepsin K (fluorogenic substrate Boc-Ala-Gly-Pro-Arg-AMC)
catalytic domain of human Cathepsin K, sequence (P43235 115-329): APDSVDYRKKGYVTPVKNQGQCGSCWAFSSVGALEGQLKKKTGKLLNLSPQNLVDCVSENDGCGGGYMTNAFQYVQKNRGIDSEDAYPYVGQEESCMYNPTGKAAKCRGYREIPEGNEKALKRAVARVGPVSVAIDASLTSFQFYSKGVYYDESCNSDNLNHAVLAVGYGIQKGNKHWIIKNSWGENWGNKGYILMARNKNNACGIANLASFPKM
Method: as §1
1 part by volume of enzyme is admixed with 4 parts by volume of cysteine solution and diluted with the acetate/Hepes buffer to a concentration of 0.22 μg/ml.
as §2, §3, §4, §9, §5, §6
The enzyme solution contains 0.22 μg/ml of the enzyme domain.
The substrate solution contains 0.3 mmol/l of the fluorogenic substrate Boc-Ala-Gly-Pro-Arg-AMC (Bachem, Heidelberg, Germany).
as §7, §8

SMILES: CC(F)(F)C[C@H](NC(=O)N1CCC2(CC1)NCC(C)(C)CO2)C(=O)NC1(C#N)CC1 [Example 45]
- Ki [1]: 1200 nM
- Ki [2]: 24 nM
- Ki [3]: 21 nM

SMILES: CC(F)(F)C[C@H](NC(=O)N1CCC2(CC1)CC(=O)N(CC1CC1)C2)C(=O)NC1(C#N)CC1 [Example 88]
- Ki [1]: 310 nM
- Ki [2]: 9 nM
- Ki [3]: 15 nM

SMILES: CC(F)(F)C[C@H](NC(=O)N1CCC2(CCCCC2)CC1)C(=O)NC1(C#N)CC1 [Example 9, N—[(S)-1-(1-cyanocyclopropylcarbamoyl)-3,3-difluorobutyl]-3-azaspiro[5.5]undecane-3-carboxamide]
- Ki [1]: 46 nM
- Ki [2]: 3.2 nM
- Ki [3]: 1.8 nM

SMILES: CC(C)C[C@H](NC(=O)C1CCC2(CC1)OCCO2)C(=O)NC1(C#N)CC1 [Example 35, N—[(S)-1-(1-cyanocyclopropylcarbamoyl)-3-methylbutyl]-1,4-dioxaspiro[4.5]decane-8-carboxamide]
- Ki [1]: > 7100 nM
- Ki [2]: 150 nM
- Ki [3]: 31 nM

SMILES: CC(F)(F)C[C@H](NC(=O)N1CCC2(CC1)C(=O)NCN2c1ccccc1)C(=O)NC1(C#N)CC1 [Example 42]
- Ki [1]: 4500 nM
- Ki [2]: 11 nM
- Ki [3]: 32 nM

SMILES: CC(F)(F)C[C@H](NC(=O)N1CCC2(CC1)CCN(Cc1ccccc1)C2=O)C(=O)NC1(C#N)CC1 [Example 49]
- Ki [1]: 2200 nM
- Ki [2]: 16 nM
- Ki [3]: 52 nM

SMILES: CC(F)(F)C[C@H](NC(=O)N1CCOC12CCCCC2)C(=O)NC1(C#N)CC1 [Example 80]
- Ki [1]: 3900 nM
- Ki [2]: 9 nM
- Ki [3]: 36 nM

SMILES: CC(F)(F)C[C@H](NC(=O)N1CCC2(CC1)OCc1ccccc12)C(=O)NC1(C#N)CC1 [Example 78]
- Ki [1]: 530 nM
- Ki [2]: 19 nM
- Ki [3]: 38 nM

SMILES: CC(F)(F)C[C@H](NS(=O)(=O)N1CCC2(CCCC2)CC1)C(=O)NC1(C#N)CC1 [Example 74, N-(1-Cyanocyclopropyl)-(S)-2-(8-azaspiro[4.5]decane-8-sulfonylamino)-4,4-difluoropentamide]
- Ki [1]: > 7100 nM
- Ki [2]: 16 nM
- Ki [3]: 150 nM

SMILES: CC(F)(F)C[C@H](NC(=O)N1CCC2(CC1)OCCO2)C(=O)NC1(C#N)CC1 [Example 37]
- Ki [1]: 560 nM
- Ki [2]: 13 nM
- Ki [3]: 21 nM

SMILES: CC(F)(F)C[C@H](NC(=O)N1CCC2(CC1)CCC(C)(C)O2)C(=O)NC1(C#N)CC1 [Example 76]
- Ki [1]: 930 nM
- Ki [2]: 22 nM
- Ki [3]: 47 nM

SMILES: N#CC1(NC(=O)[C@H](CC(F)(F)Cc2ccccc2)NC(=O)N2CCC3(CC2)CC3)CC1 [Example 70, N—[(S)-1-(1-cyanocyclopropylcarbamoyl)-3,3-difluoro-4-phenylbutyl]-6-azaspiro[2.5]octane-6-carboxamide]
- Ki [1]: 110 nM
- Ki [2]: 0.3 nM
- Ki [3]: 910 nM

SMILES: CCCC(F)(F)C[C@H](NC(=O)N1CCC2(CC1)CCN(c1ccc(OC)cc1)C2)C(=O)NC1(C#N)CC1 [Example 91]
- Ki [1]: 140 nM
- Ki [2]: 2 nM
- Ki [3]: 43 nM

SMILES: CCCC(F)(F)C[C@H](NC(=O)N1CCC2(CC1)CCN(C1CC1)CC2)C(=O)NC1(C#N)CC1 [Example 94]
- Ki [1]: 84 nM
- Ki [2]: 2 nM
- Ki [3]: 24 nM

SMILES: CC(F)(F)C[C@H](NC(=O)N1CCC2(CC1)CC2)C(=O)NC1(C#N)CC1 [Example 63, N—[(S)-1-(1-cyanocyclopropylcarbamoyl)-3,3-difluorobutyl]-6-azaspiro[2.5]octane-6-carboxamide]
- Ki [1]: 260 nM
- Ki [2]: 5 nM
- Ki [3]: 22 nM

SMILES: CC(F)(F)C[C@H](NC(=O)N1CCC2(CCCC2)CC1)C(=O)NC1(C#N)CC1 [Example 36]
- Ki [1]: 44 nM
- Ki [2]: 2 nM
- Ki [3]: 3 nM

SMILES: N#CC1(NC(=O)C2(NC(=O)N3CCC4(CCCC4)CC3)CCCCC2)CC1 [Example 53]
- Ki [1]: 1500 nM
- Ki [2]: 53 nM
- Ki [3]: 4.5 nM

SMILES: CN1CCC(C#N)(NC(=O)[C@H](CC(C)(F)F)NC(=O)N2CCC3(CC2)CC3)CC1 [Example 103]
- Ki [1]: 99 nM
- Ki [2]: 27 nM
- Ki [3]: 84 nM

SMILES: N#CC1(NC(=O)[C@H](CC(F)(F)Cc2ccccc2)NC(=O)N2CCC3(CC2)CCN(C2CC2)CC3)CC1 [Example 97]
- Ki [1]: 100 nM
- Ki [2]: 1 nM
- Ki [3]: 400 nM

SMILES: CC(F)(F)C[C@H](NC(=O)N1CCC2(CCCCC2)C1)C(=O)NC1(C#N)CC1 [Example 77]
- Ki [1]: 220 nM
- Ki [2]: 7 nM
- Ki [3]: 20 nM

SMILES: CC(F)(F)C[C@H](NC(=O)N1CCC2(CC1)CCN(C1CC1)CC2)C(=O)NC1(C#N)CC1 [Example 56]
- Ki [1]: 210 nM
- Ki [2]: 7.2 nM
- Ki [3]: 7.5 nM

SMILES: CCCC(F)(F)C[C@H](NC(=O)N1CCC2(CC1)CC2)C(=O)NC1(C#N)CC1 [Example 102]
- Ki [1]: 62 nM
- Ki [2]: 0.5 nM
- Ki [3]: 33 nM

SMILES: CC(F)(F)C[C@H](NC(=O)N1CCC2(CCCc3ccccc32)C1)C(=O)NC1(C#N)CC1 (stereo partly drawn) [Example 79]
- Ki [1]: 620 nM
- Ki [2]: 9 nM
- Ki [3]: 16 nM

SMILES: CC(F)(F)C[C@H](NC(=O)N1CC2(CCN(C3CC3)CC2)C1)C(=O)NC1(C#N)CC1 [Example 83]
- Ki [1]: 2300 nM
- Ki [2]: 8 nM
- Ki [3]: 28 nM
